Measured values: PMC12040169 (PLOS Biology, 2025)

test: in vitro; settings: human, hela cells, % viability

| SMILES | viability at 28.5 h, 10 µM |
| --- | --- |
| Cc1nn2c(-c3ccc(NC(=O)c4cccs4)cc3)nnc2c2ccccc12 [CBK267134] | 89.6% |
| CCn1c2ccccc2n2c(SCCC(=O)O)nnc12 [CBK267135] | 102% |
| O=C(CN(c1ccccc1)S(=O)(=O)c1ccccc1[N+](=O)[O-])Nc1ccc(C(F)(F)F)cc1 [CBK267137] | 64.6% |
| Cc1cc(=O)oc2cc(NC(=S)NNC(=O)c3ccc4c(c3)c(C)c(C)n4Cc3ccccc3)ccc12 [CBK267138] | 89.6% |
| CCOc1ccccc1NC(=O)Nc1ncccc1C [CBK267140] | 85.3% |
| O=C(O)CC(NCc1ccccc1)C(=O)Nc1ccc(Cl)cc1 (centres unmarked) [CBK267141] | 95.4% |
| CC(C)(O)C#Cc1ccc(C(=O)NCCCNC(=O)c2ccc(C#CC(C)(C)O)s2)s1 [CBK267142] | 93.8% |
| CCn1c(COc2cccc(C)c2)nnc1SCC(=O)c1ccccc1 [CBK267143] | 97.4% |
| CSc1nnc(Cc2nnc(SC)n2-c2ccccc2)n1-c1ccccc1 [CBK267145] | 105% |
| Cc1cccnc1Nc1nc(-c2sc(N)nc2C)cs1 [CBK267147] | 90.3% |
| CCn1c(SCC(=O)NC2CCCCC2C)nnc1-c1cc2cccc(OC)c2o1 (centres unmarked) [CBK267148] | 89.5% |
| O=C(Nc1ccccc1Cl)c1ccc(NCCN2C(=O)c3ccccc3C2=O)c([N+](=O)[O-])c1 [CBK267149] | 95.8% |
| Cc1cc(Br)cc(C)c1OCC(=O)NNC(=O)Cc1cccc2ccccc12 [CBK267151] | 95.2% |
| CCn1c(S)nnc1CNC(=O)c1ccc(Cl)cc1Cl [CBK267152] | 94.3% |
| Cc1cccc(OCc2nnc(SCC(=O)Nc3cccc4ccccc34)o2)c1C [CBK267153] | 108% |
| COc1c(C)cc(Br)cc1C(=O)Nc1ccccc1-c1nc2ccccc2s1 [CBK267155] | 99.8% |
| Cc1cccc(C)c1NC(=O)CCC(=O)OCc1ccccc1 [CBK267158] | 102% |
| Cc1ccc(NC(=O)c2cc([N+](=O)[O-])ccc2NCCN2C(=O)c3ccccc3C2=O)cc1 [CBK267159] | 87.5% |
| COc1ccc(S(=O)(=O)N2CCC(C(=O)O)CC2)cc1Cl [CBK267162] | 94.9% |
| O=C(CC1NC(=O)NC1=O)Nc1cccc2ccccc12 (centres unmarked) [CBK267164] | 90.3% |
| NC(=O)C1(N2CCCCC2)CCN(C(=S)Nc2ccc(F)c(Cl)c2)CC1 [CBK267165] | 97.4% |
| COc1cc(/C=C/c2nc(O)c([N+](=O)[O-])c(=O)[nH]2)ccc1OCC(=O)N1CCOCC1 [CBK267168] | 96.8% |

| SMILES | viability at 28.5 h, 10 µM |
| --- | --- |
| COc1ccc(Nc2nc(-c3sc(C)nc3C)cs2)c(OC)c1 [CBK267170] | 46.5% |
| Nc1ccc(-c2nnc(SCC(=O)Nc3ccc(Br)cc3F)n2-c2ccccc2)cc1 [CBK267175] | 98.8% |
| COc1ccc(S(=O)(=O)N(C)CC(=O)O)cc1C [CBK267176] | 108% |
| O=c1oc2cc(S(=O)(=O)NCc3ccco3)ccc2c2ccc(S(=O)(=O)NCc3ccco3)cc12 [CBK267177] | 96.5% |
| O=C(CNS(=O)(=O)c1cccc(Cl)c1)Nc1ccc(-c2nc3ccccc3s2)cc1 [CBK267178] | 97.5% |
| CCCOc1ccccc1-c1nnc(SCCC(=O)O)[nH]1 [CBK267182] | 93.9% |
| COC(=O)c1sccc1NC(=O)Cn1nnc(-c2ccc(C)cc2)n1 [CBK267183] | 98.4% |
| c1ccc(-c2csc(Nc3cccnc3)n2)nc1 [CBK267184] | 107% |
| O=C(CSc1nnc(COc2ccccc2)o1)N1CCN(c2ccccc2)CC1 [CBK267185] | 97.5% |
| Nc1ncnc(NNC(=O)CNC(=O)c2ccccc2C(F)(F)F)c1[N+](=O)[O-] [CBK267186] | 94.1% |
| COC(=O)c1ccc(N2C(=O)CC(SCCc3nc4ccccc4[nH]3)C2=O)cc1 (centres unmarked) [CBK267188] | 88.5% |
| Cc1ccc2oc3c(c(=O)c2c1)C(c1ccc(OCC(N)=O)cc1)N(Cc1ccc2c(c1)OCO2)C3=O (centres unmarked) [CBK267189] | 91.3% |
| O=C(CN1CCNCC1)Nc1ccc(Oc2ccccc2)cc1 [CBK267191C] | 102% |
| COc1ccc(Cl)cc1NC(=S)NCCc1ccc(S(N)(=O)=O)cc1 [CBK267198] | 85.6% |
| Nc1c(C(=O)NCc2ccccc2)c2nc3ccccc3nc2n1CCO [CBK267201] | 108% |
| CCOc1ccccc1-n1c(CN2CCN(C(=O)c3ccco3)CC2)nc2ccccc2c1=O [CBK267203] | 86.4% |
| Cc1cccc(OCc2nnc(SCC(=O)Nc3cc(C(F)(F)F)ccc3Cl)o2)c1C [CBK267204] | 85.3% |
| CC1(C)Cc2nc(-c3ccccc3)nc(SCC(=O)NCCc3ccccc3)c2CO1 [CBK267205] | 86.7% |
| O=C(c1ccco1)N1CCN(c2ncnc3scc(-c4cccs4)c23)CC1 [CBK267208] | 110% |
| O=C(Nc1ccc(N2CCN(Cc3ccccc3F)CC2)cc1)c1cc2ccccc2o1 [CBK267210] | 87.4% |
| O=C(NCC1CCCO1)c1ccc(CNS(=O)(=O)c2cccc(Cl)c2)cc1 (centres unmarked) [CBK267219] | 88.6% |
| Cc1nn(-c2nc3ccccc3s2)c(O)c1C1OC(=O)c2ccccc21 (centres unmarked) [CBK267220] | 95% |

| SMILES | viability at 28.5 h, 10 µM |
| --- | --- |
| CC(C)c1ccc(OCC(=O)NNC(=O)c2ccco2)c(Br)c1 [CBK267224] | 86.7% |
| O=C(c1ccco1)N1CCN(Cc2nc3ccccc3c(=O)n2-c2ccc(F)cc2)CC1 [CBK267226] | 94.3% |
| Cc1nc2ccc(NC(=S)N3CCN(c4ccccn4)CC3)cc2nc1C [CBK267227] | 67.1% |
| CCOc1ccc2nc(SCC(=O)Nc3c(C)n(C)n(-c4ccccc4)c3=O)sc2c1 [CBK267229] | 95.5% |
| Cc1ccccc1OCc1nn2c(COc3ccccc3)nnc2s1 [CBK267230] | 85.4% |
| CCOC(=O)c1c(NC(=O)CSc2nc[nH]n2)sc2c1CCCCC2 [CBK267231] | 90.8% |
| COC(=O)c1ccc(NC(=S)N2CCC(C(N)=O)CC2)cc1 [CBK267232] | 90.2% |
| C=CCOc1ccccc1CNc1nc[nH]n1 [CBK267234] | 93.7% |
| Cc1cc(Sc2ncnc(N)c2[N+](=O)[O-])ncn1 [CBK267235] | 36.7% |
| O=C(Nc1nnn[nH]1)C1(c2ccc([N+](=O)[O-])cc2)CCCC1 [CBK267237] | 93.7% |
| O=C(CCc1nc2ccccc2[nH]1)Nc1ccc(F)cc1 [CBK267238] | 95.5% |
| O=C(CSc1nnc(-c2ccncc2)n1-c1ccccc1)N1CCN(Cc2ccccc2)CC1 [CBK267240] | 105% |
| COc1ccc(CN2CC(C(=O)O)CC2=O)cc1 (centres unmarked) [CBK267242] | 96.4% |
| O=C(NCCCN1CCOCC1)C(=O)NC1CC1 [CBK267243] | 101% |
| Fc1cccc(Cl)c1CNc1ccc(CNc2ncn[nH]2)cc1 [CBK267245] | 93.1% |
| Cc1ccc(Cl)cc1NC(=O)CC1NCCNC1=O (centres unmarked) [CBK267246] | 97% |
| Cc1ccc(-c2nn3c(C)nnc3s2)cc1NC(=O)c1ccc([N+](=O)[O-])o1 [CBK267247] | 95.2% |
| CC(C)(C)c1ccc(S(=O)(=O)NCc2ccc(C(=O)NCc3ccccn3)cc2)cc1 [CBK267248] | 115% |
| O=C(NCc1ccccn1)c1ccc(NS(=O)(=O)c2cccc(Cl)c2)cc1 [CBK267249] | 111% |
| O=C(Nc1ccc(N2CCN(Cc3ccccc3F)CC2)cc1)c1cccnc1 [CBK267250] | 106% |
| N#C/C(=C\c1c[nH]nc1-c1ccccc1)c1nc(-c2cccc([N+](=O)[O-])c2)cs1 [CBK267252] | 96.8% |
| O=C(Nc1ccc2nc(-c3ccco3)c(-c3ccco3)nc2c1)N1CCCCCC1 [CBK267253] | 85.4% |

| SMILES | viability at 28.5 h, 10 µM |
| --- | --- |
| Nc1ncnc(Nc2ccc(F)cc2Cl)c1[N+](=O)[O-] [CBK267255] | 93.1% |
| Cc1ccccc1C(=O)Nc1cccc(NC(=O)c2ccc(-c3cc4ccccc4oc3=O)cc2)c1 [CBK267256] | 118% |
| CN1CCN(C(=O)c2ccc3nc(-c4ccccc4)c(-c4ccccc4)nc3c2)CC1 [CBK267257] | 98.7% |
| COC(=O)COc1ccc(Oc2nc(N(C)C)nc(N3CCOCC3)n2)nn1 [CBK267258] | 104% |
| COc1ccc(CCNc2nc(-c3ccccn3)cs2)cc1OC [CBK267260] | 100% |
| Nc1ncnc(NCCCc2ccccc2)c1[N+](=O)[O-] [CBK267261] | 88.9% |
| Cc1nc(C)c(-c2csc(Nc3ccc(C(=O)O)c(O)c3)n2)s1 [CBK267263] | 101% |
| O=C(O)CCNS(=O)(=O)c1cccc(F)c1 [CBK267264] | 115% |
| COc1ccc(NC(S)=NCCN2CCC(C)CC2)cc1Cl [CBK267268] | 84% |
| N#C/C(=C\c1ccc2noc(-c3ccccc3)c2c1)c1nc(-c2cc3ccccc3oc2=O)cs1 [CBK267269] | 90.2% |
| O=[N+]([O-])c1ccccc1S(=O)(=O)N1CCN(c2ccnc3cc(Cl)ccc23)CC1 [CBK267271] | 92.1% |
| CC1CCc2c(sc3nc(SCC(=O)NC(c4ccccc4)c4ccccc4)nc(N)c23)C1 (centres unmarked) [CBK267274] | 91.1% |
| Cc1cc(C)c(C)c(S(=O)(=O)Nc2ccc(C(=O)NCc3ccccn3)cc2)c1C [CBK267275] | 85.8% |
| O=C(Nc1ccccc1N1CCN(C(=O)c2ccc(Cl)cc2)CC1)c1ccc(-c2cc3ccccc3oc2=O)cc1 [CBK267280] | 92.3% |
| CN(C)c1nc(NCc2ccccc2)nc(SCC(=O)Nc2ccc(Cl)c(Cl)c2)n1 [CBK267289] | 97% |
| CC(=O)Nc1ccc(-c2csc(Nc3ccc(S(=O)(=O)Nc4nc(C)cc(C)n4)cc3)n2)cc1 [CBK267295] | 87% |
| C=CCOc1ccc2ccccc2c1CNc1nc[nH]n1 [CBK267296] | 87.9% |
| O=C(NCc1ccccn1)c1ccc(CNS(=O)(=O)c2cccc(Cl)c2)cc1 [CBK267297] | 100% |
| Cc1cc(NS(=O)(=O)c2ccc(Nc3nc(-c4ccc(Cl)cc4Cl)cs3)cc2)no1 [CBK267298] | 104% |
| CC(=O)C1=C(c2ccccc2)NC(=S)NC1c1cc(Cl)ccc1OCC(=O)O (centres unmarked) [CBK267300] | 99.4% |
